Data from patent US6825231B2, “Substituted norbornylamino derivatives, processes for their preparation, their use as medicaments or diagnostics, and a medicament comprising them” (Aventis Pharma Deutschland GmbH, priority 1999, dated 2004).
Where a name gives a salt, the structure may show the parent alone. Values belong to the compound of their own block, whether it stands above or below them.

Experiments:
Caco 2 cells = assay: Caco 2 model (transport across monolayers, absorbed fraction); type: in vitro ADME; details: Caco 2 monolayers, apical to basolateral, assessed from Papp via calibration curve
Procedure: The Caco 2 cell line was obtained from the American Type Culture Collection (ATCC) and kept in Dulbecco's Modified Eagle Medium (high proportion of glucose), supplemented with non-essential amino acids, L-glutamine, penicillin/streptomycin, and 10% strength fetal calf serum, in an incubator under a 10% CO2 atmosphere at 95% relative atmospheric humidity and at 37° C. The cells were grown in cell culture flasks (175 cm^2). For the transport studies, the Caco 2 cells were inoculated onto polycarbonate cell culture inserts (COSTAR TRANSWELLS®, pore size: 3 μm, surface: 4.71 cm^2) at a cell density of 6.5×10^4 cells/cm^2 and incubated in six-well culture trays, changing the medium after four and eight days and then every other day. 21- to 25-day-old monolayers were used for the experiments.
In each test series, a 21-day-old monolayer was tested for its properties using ^3H-dextrane as permeability marker. The value of the transfer rate (cumulative) after 120 min had to be in the range of 2%.
The growth medium was removed from the apical and the basolateral side and the monolayers were then rinsed with the transport buffer (Hank's balanced salt solution pH 7.8; contains 2.8 g/l of glucose), and the cells were equilibrated at 37° C. under a 10% CO2 atmosphere for 15 min. The HBSS buffer is then removed.
The test compounds were dissolved in a mixture of HBSS buffer and DMSO and added to the apical buffer, giving a 1% strength (v/v) DMSO solution. The test concentration for the first experiment was 1 mM, that for the second experiment was 100 μM. The experiments were carried out at 37° C. and started by adding 1.5 ml of test solution on the donor side (apical). Transport buffer without compound was added to the recipient side (basolateral, 2.5 ml). […] Apical samples were taken at the start and at the end (120 min), so that the recovery rate of the compounds could be determined using these concentrations and the cumulative basolateral concentration. The compounds were analyzed by HPLC.
The apparent permeability coefficient (Papp) is calculated using the following equation: [formula]
in which dc/dt denotes the flow through the monolayer (μg of compound/(ml×s)), V denotes the liquid volume in the collection chamber (ml), A denotes the surface area of the monolayer (cm^2) and c0 denotes the initial concentration (μg of compound/ml) in the donor chamber. The flow through the monolayer was calculated from the cumulative basolateral concentration at the corresponding point of time using the initially linear data curve (linear up to 60 min). All determinations were carried out in three replications, so that the calculated Papp value is the mean of three measurements. […]

Rat NHE3 = target: T1, Rat NHE3 (Rattus norvegicus, UniProt P26433); assay: NHE activity measurement: pHi recovery after acid load in transfected LAP1 cells; type: cell-based; details: pH recovery after acid load, 3 minutes
T1 construct: expressed in transfected cells
Description: Most molecular biology techniques follow protocols from the works “Current Protocols in Molecular Biology (eds. Ausubel, F. M., Brent, R., Kingston, R. E., Moore, D. D., Seidman, J. G., Smith, J. A. and Struhl, K.; John Wiley & Sons)” or: “Molecular Cloning: A Laboratory Manual (Sambrock, J., Fritsch, E. F. and Maniatis, T.; Cold Spring Harbor Laboratory Press (1989))”. In our studies, stable transfected cell lines were produced which in each case express one of the following NHE subtypes: NHE1 of man (Sardet et al. Cell 56, 271-280 (1989)), NHE2 of the rabbit (Tse et al. J. Biol. Chem. 268, 11917-11924 (1993)), NHE3 from humans (Brant et al. Am. J. Physiol. 269 (Cell Physiol. 38), C198-C206 (1995)) or NHE3 of the rat (Orlowski et al.; J. Biol. Chem. 267, 9331-9339 (1992)).
After adding suitable linker sequences, the cDNA clones of the respective NHE subtypes obtained by Prof. Pouyssegur were cloned into the expression plasmid pMAMneo (obtainable, for example, via CLONTECH, Heidelberg) such that the Nhel restriction endonuclease recognition sequence of the plasmid is approximately 20-100 base pairs before the start codon of the respective NHE subtype and the entire coding sequence is present in the construct. In the human NHE3 obtained from human kidney mRNA via RT-PCR, the RT-PCR primer were selected such that the resulting cDNA band had terminal restriction sites which matched pMAMneo.
Using the so-called “calcium phosphate method” (described in Chapter 9.1 of “Current Protocols in Molecular Biology”), the NHE-deficient cell line LAP1 (Franchi et al.; Proc. Natl. Acad. Sci. USA 83, 9388-9392 (1986)) was transfected with the plasmids which contain the respective coding sequences of the NHE subtypes. After selection of transfected cells by means of growth in G418-containing medium (only cells which as a result of transfection contain a neogene can survive under these conditions), a selection was made for functional NHE expression. To do this, the “Acid Load” technique described by Sardet was used (Sardet et al.; Cell 56, 271-280 (1989)). Cells which express a functioning NHE subtype can also compensate in the absence of CO2 and HCO3- for the acidification carried out during this test, but untransfected LAP1 cells cannot. After repetition of the “Acid Load” selection several times, the surviving cells were inoculated into microtiter plates such that statistically there should have been one cell per well. Under the microscope, a check was made after approximately 10 days as to how many colonies were growing per well. Cell populations of individual colonies were then investigated with respect to their viability after “Acid Load” using the XTT proliferation kit (Boehringer Mannheim). The best cell lines were used for the further tests, and to avoid a loss of the transfected sequence were cultured under continuous selection pressure in G418-containing medium.
To determine IC50-values for the inhibition of the individual NHE subtypes by specific substances, a test developed by S. Faber (Faber et al.; Cell. Physiol. Biochem. 6, 39-49 (1996)), which is based on the “Acid Load” technique, was slightly modified.
In this test, the recovery of the intracellular pH (pHi) after an acidification was determined, which commences with functioning NHE even under bicarbonate-free conditions. To do this, the pHi was determined using the pH-sensitive fluorescent dye BCECF (Calbiochem, the precursor BCECF-AM is employed). The cells were first loaded with BCECF. The BCECF fluorescence was determined in a “Ratio Fluorescence Spectrometer” (Photon Technology International, South Brunswick, N.J., USA) at excitation wavelengths of 505 and 440 nm and an emission wavelength of 535 nm and converted into the pHi by means of calibration curves. […]

male Wistar rats = assay: Diuresis (salidiuresis) experiment in rats; type: in vivo, rat; details: for Cl / K / Na: urine excretion; for Na/K / Osmolality: urine
Procedure: The salidiuresis experiment was carried out using male Wistar rats having a weight of 155 to 175 g. 16 hours before the start of the experiment, the feed, but not the drinking water, was withdrawn from the animals. The rats were randomized and placed into diuresis cages. […] The control group received, orally, the corresponding volume of drinking water as vehicle. The excretion of urine of each group for the first 5 hours and in the period from 6 to 24 hours was measured. The urine electrolytes sodium and potassium were determined by flame photometry (flame photometer Eppendorf, Hamburg), and chloride was determined potentiometrically (chloride meter Eppendorf). The osmolality of the urine was determined using the freezing-point depression method (osmometer Vogel, Gieβen). Urine and electrolyte excretion and osmolality are stated in ml/kg, mmol/kg, and mosmol/kg of body weight, respectively. The ratio of Na^+/K^+ is an indication of the quality of effect of a diuretic. The results given in the table are arithmetic means with standard deviation.

[1] = 50 mg/kg p.o., mean, 6-24 hours
[2] = 50 mg/kg p.o., mean, sum 1-24 hours

T1 sequence (P26433 29-831): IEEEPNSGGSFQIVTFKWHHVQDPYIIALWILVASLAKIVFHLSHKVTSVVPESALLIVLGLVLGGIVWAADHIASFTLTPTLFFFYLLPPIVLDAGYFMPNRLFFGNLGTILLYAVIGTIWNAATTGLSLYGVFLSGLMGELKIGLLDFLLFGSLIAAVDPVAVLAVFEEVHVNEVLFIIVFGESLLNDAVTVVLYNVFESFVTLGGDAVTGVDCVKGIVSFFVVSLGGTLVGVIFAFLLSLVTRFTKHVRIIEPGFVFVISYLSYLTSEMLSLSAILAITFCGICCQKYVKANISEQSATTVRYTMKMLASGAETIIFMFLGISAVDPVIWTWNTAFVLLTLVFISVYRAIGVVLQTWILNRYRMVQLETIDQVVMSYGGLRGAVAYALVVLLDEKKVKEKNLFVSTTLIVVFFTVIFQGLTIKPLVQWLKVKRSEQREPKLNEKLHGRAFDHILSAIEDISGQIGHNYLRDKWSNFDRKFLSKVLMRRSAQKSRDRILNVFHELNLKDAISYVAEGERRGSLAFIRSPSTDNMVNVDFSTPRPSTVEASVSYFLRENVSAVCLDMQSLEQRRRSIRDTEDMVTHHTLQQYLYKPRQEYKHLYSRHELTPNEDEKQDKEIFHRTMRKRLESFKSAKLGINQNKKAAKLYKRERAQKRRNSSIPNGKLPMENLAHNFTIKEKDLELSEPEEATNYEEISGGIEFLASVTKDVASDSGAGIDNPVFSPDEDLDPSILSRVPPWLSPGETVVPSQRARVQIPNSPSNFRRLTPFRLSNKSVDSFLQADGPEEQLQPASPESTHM

- melting point: 248 °C
Compound: Brc1cccc(CN[C@@H]2C[C@@H]3C[C@H]2[C@@H]2CCC[C@H]32)c1.Cl

- melting point: 134 °C
Compound: COCCOc1cccc(CN[C@@H]2C[C@@H]3C[C@H]2[C@@H]2CCC[C@H]32)c1.Cl

- melting point: 220 to 224 °C (dec.)
Compound: Cl.Ic1cccc(CN[C@@H]2C[C@@H]3C[C@H]2[C@@H]2CCC[C@H]32)c1

- melting point: 166 to 170 °C (dec.)
Compound: CN(C)c1cccc(CN[C@@H]2C[C@@H]3C[C@H]2[C@@H]2CCC[C@H]32)c1.Cl

- melting point: 222 to 225 °C
Compound: COc1cccc(CCN[C@@H]2C[C@@H]3C[C@H]2[C@@H]2CCC[C@H]32)c1.Cl

- melting point: 186 to 188 °C
Compound: COc1cccc(CCCN[C@@H]2C[C@@H]3C[C@H]2[C@@H]2CCC[C@H]32)c1.Cl

- melting point: 234 to 236 °C
Compound: COc1cccc(CN[C@@H]2C[C@@H]3C[C@H]2[C@@H]2CCCC[C@H]32)c1.Cl

- Absorbed fraction (Caco 2 cells): 100%
- IC50 (Rat NHE3): 810 nM
Compound: COc1cccc(CN[C@@H]2C[C@@H]3C[C@H]2[C@@H]2CCC[C@H]32)c1.Cl (racemic) [Example 5, rac-(exo/endo)-(3-methoxybenzyl)(octahydro-4,7-methanoinden-5-yl)amine hydrochloride]
- Urine (male Wistar rats; 50 mg in 10 ml of drinking water/kg of BW p.o., n = 5, mean, 1-5 hours): 12.39 mL/kg
- salidiuretic effect (assessment) (male Wistar rats; 50 mg/kg orally, compared to the control): no salidiuretic effect
- Urine (male Wistar rats; [1]): 22.57 mL/kg
- Urine (male Wistar rats; [2]): 34.96 mL/kg
- Cl (male Wistar rats; 50 mg/kg p.o., mean, 1-5 hours): 0.60 mmol/kg
- K (male Wistar rats; 50 mg/kg p.o., mean, 1-5 hours): 0.75 mmol/kg
- Na (male Wistar rats; 50 mg/kg p.o., mean, 1-5 hours): 0.31 mmol/kg
- Cl (male Wistar rats; [1]): 1.57 mmol/kg
- K (male Wistar rats; [1]): 3.57 mmol/kg
- Na (male Wistar rats; [1]): 1.29 mmol/kg
- Cl (male Wistar rats; [2]): 2.17 mmol/kg
- K (male Wistar rats; [2]): 4.31 mmol/kg
- Na (male Wistar rats; [2]): 1.60 mmol/kg
- Na/K (male Wistar rats; 50 mg/kg p.o., mean, 1-5 hours): 0.47
- Osmolality (male Wistar rats; 50 mg/kg p.o., mean, 1-5 hours): 7.82 mosmol/kg
- Na/K (male Wistar rats; [1]): 0.37
- Osmolality (male Wistar rats; [1]): 30.51 mosmol/kg
- Na/K (male Wistar rats; [2]): 0.38
- Osmolality (male Wistar rats; [2]): 38.33 mosmol/kg

- IC50 (Rat NHE3): 5000 nM
Compound: COc1cccc(CN[C@@H]2C[C@@H]3C[C@H]2[C@H]2CCC[C@@H]32)c1 (relative stereo) [Example 9, (exo/exo)-(3-methoxybenzyl)(octahydro-4,7-methanoinden-5-yl)amine hydrochloride]

Compound: COc1cccc(CNC2CC3CC2C2CCCC32)c1 (single isomer, unassigned; (+)) [(+)−6, (+)-(exo/endo)-(3-methoxybenzyl)(octahydro-4,7-methanoinden-5-yl) amine hydrochloride]
- IC50 (Rat NHE3; hydrochloride): 500 nM

Compound: COc1cccc(CNC2CC3CC2C2CCCC32)c1 (single isomer, unassigned; (-)) [(−)−6, (−)-(exo/endo)-(3-methoxybenzyl)(octahydro-4,7-methanoinden-5-yl)amine hydrochloride]
- IC50 (Rat NHE3; hydrochloride): 1000 nM

- IC50 (Rat NHE3): 31000 nM
Compound: COc1cccc(CN[C@@H]2CC3CC2[C@@H]2CCC[C@H]32)c1 (stereo partly drawn) [Example 7, (endo/exo)-(3-methoxybenzyl)(octahydro-4,7-methanoinden-5-yl)amine hydrochloride]

- IC50 (Rat NHE3): 70000 nM
Compound: COc1cccc(CN[C@@H]2CC3CC2[C@H]2CCC[C@@H]32)c1 (stereo partly drawn) [Example 8, (endo/endo)-(3-methoxybenzyl)(octahydro-4,7-methanoinden-5-yl)amine hydrochloride]

- Absorbed fraction (Caco 2 cells): 100%
- IC50 (Rat NHE3): 900 nM
Compound: Cl.Fc1cccc(CN[C@@H]2C[C@@H]3C[C@H]2[C@@H]2CCC[C@H]32)c1 [Example 10, (exo/endo)-(3-fluorobenzyl)(octahydro-4,7-methanoinden-5-yl)amine hydrochloride]

- melting point: 258 to 261 °C
Compound: O=C(O)c1cccc(CN[C@@H]2C[C@@H]3C[C@H]2[C@@H]2CCC[C@H]32)c1 [Example 14, (exo/endo)-3-[(octahydro-4,7-methanoinden-5-ylamino)-methyl]benzoic acid]

- Absorbed fraction (Caco 2 cells): <1%
Compound: C/C(=C\c1cccc(/C=C(\C)C(=O)N=C(N)N)c1)C(=O)N=C(N)N.Cl.Cl [S 2120, reference compound]

- Absorbed fraction (Caco 2 cells): <5%
Compound: C/C(=C\c1ccc(C)cc1/C=C(\C)C(=O)N=C(N)N)C(=O)N=C(N)N.Cl.Cl [S 3226, reference compound]
